ChEMBL document CHEMBL1212744, “Relative contributions of active mediated transport and passive diffusion of fluoroquinolones with various lipophilicities in a Calu-3 lung epithelial cell model” (Antimicrob Agents Chemother, 2010)

What was measured:
[1] = Distribution coefficient, log D of the compound; conditions: octanol/water
[2] = Apparent permeability across apical to basolateral side in human Calu3 cells
[3] = Apparent permeability across basolateral to apical side in human Calu3 cells
[4] = Efflux ratio of apparent permeability across basolateral to apical side over apical to basolateral side in human Calu3 cells

logD [1] | Papp A→B [2] | Papp B→A [3] | efflux ratio [4] | Compound
0.03 | 3.1 ×10⁻⁶ cm/s | 11.8 ×10⁻⁶ cm/s | 3.8 | Cc1c(F)c(N2CCNC(C)C2)cc2c1c(=O)c(C(=O)O)cn2C1CC1 (stereo unspecified) [GREPAFLOXACIN]
-0.41 | – | – | – | C[C@H]1COc2c(N3CCN(C)CC3)c(F)cc3c(=O)c(C(=O)O)cn1c23.C[C@H]1COc2c(N3CCN(C)CC3)c(F)cc3c(=O)c(C(=O)O)cn1c23.O [LEVOFLOXACIN]
– | 5 ×10⁻⁶ cm/s | 10.4 ×10⁻⁶ cm/s | – | COc1c(N2C[C@@H]3CCCN[C@@H]3C2)c(F)cc2c(=O)c(C(=O)O)cn(C3CC3)c12 [MOXIFLOXACIN]
-1.16 | 0.6 ×10⁻⁶ cm/s | 2 ×10⁻⁶ cm/s | 3.3 | CCn1cc(C(=O)O)c(=O)c2cc(F)c(N3CCNCC3)cc21 [NORFLOXACIN]
